Experimental data reported in patent US8557733B2, “Composition for regenerating and stimulating growth of plants and for adapting plants to different stress factors” (Mitotech S.A., priority 2006, dated 2013).
“Also recorded” adds a separate entry of the source.

Key:
maize callus cultures = details: added to nutrient medium for callus initiation; cited from earlier work
sugar cane calli [1] = test: Shoot formation and plant regeneration from sugar cane calli; type: cell-based
Protocol: (§1) In this work, calli and explants of tobacco, sugar cane, maize, lucerne, potato and tomatoes were used. Calli were incubated at Petri dishes containing agarized Murashige-Skoog medium with […] and 1 mg/L 2,4-dichlorophenoxyacetic acid. The cultivation was carried out at temperature 26° C., illumination intensity of 2 cd and the length of daylight of 16 hours. SkQ1 was added to autoclaved and cooled (up to 45° C.) nutrient medium immediately before callus planting. SkQ1 at concentrations of 0, 1.5, 5, 10, 20, 30 and 50 nM was used. Increase of callus green weight, a fraction of calli with shoots and roots and an average number of organs per a morphogenetic callus were taken into account after one month of cultivation.
At the same time, development of shoots of calli transferred onto regeneration medium from medium without SkQ1 has been at the very initial stage.
To produce normal plants, sugar cane shoots formed by 10 nM SkQ1 were transferred onto rootage agarized medium containing the same optimum SkQ1 concentration (10 nM). After root formation, the plants were transferred into water medium and then displanted into the ground. Estimation of the plant state was performed at every stage.

tobacco leaf explants = test: Callus formation (dedifferentiation) and root formation in tobacco leaf explants; type: cell-based; details: 0.6 μM SkQ1
Protocol: Effect of SkQ1 on callus formation (dedifferentiation) in tobacco leaf explants was investigated. Sterile leaf disks of plants Nicotiana tabacum cv Samsun were sliced with approximately 1 cm^2 size. The resulting explants were placed at standard MS medium for callus formation supplemented with phytohormones 0.5 mg/L 6-benzylaminopurine and 1 mg/L naphthylacetic acid. Test Petri plates were also supplemented with 0.6 μM SkQ1. Explants were cultivated in darkness for 5 weeks. During incubation callus was initially formed at wound explant surfaces.

maize callus = test: Morphogenetic processes in maize callus; type: cell-based
Protocol: as §1
Dose-dependent effect of SkQ1 on morphogenetic processes in maize callus was shown. […] Variations in green weight resulted mainly from amount of formed roots.

Lucerne calli = test: Callus growth and regeneration ability of lucerne calli; type: cell-based
Protocol: as §1
Lucerne calli were cultivated for 1 month in the presence of different SkQ1 concentrations (0-10 nM). Effect of SkQ1 on callus growth (weight change) and regeneration ability (formation of calli with “green areas”) were assessed.

leaf potato explants = test: Formation of shoots and roots from leaf potato explants; type: cell-based; details: 10 nM SkQ1, 10 days
Protocol: (§2) Effect of SkQ1 on formation shoots and roots from leaf potato explants and stem tomato explants was investigated. Explants were incubated for 10 days in the presence of 10 nM SkQ1 or with no SkQ1.

stem tomato explants = test: Formation of shoots and roots from stem tomato explants; type: cell-based; details: 10 nM SkQ1, 10 days
Protocol: as §2

rice seeds = test: Germination of rice seeds under water (anaerobic conditions); type: in vivo
Protocol: Effect of SkQ1 on germination of rice seeds under water (under anaerobic conditions) was studied. SkQ1 was added to water at concentrations of 0, 1, 3, 10, 30 nM.

sugar cane calli [2] = test: Survival of sugar cane calli after anaerobic stress; type: cell-based; details: 48 hours anoxic, then aerobic medium with 10 nM SkQ1
Protocol: Effect of SkQ1 on survival of sugar cane calli following anaerobic stress was assessed. For this purpose, sugar cane calli were incubated for 48 hours under anoxic conditions and then were transferred under aerobic conditions at a nutrient medium containing 10 nM SkQ1or no SkQ1 (control).

isolated embryos = details: micromolar concentration; wheat; cited from earlier work
maize embryogenic callus = details: cited from earlier work
wheat tussue culture = details: wheat tissue culture; cited from earlier work
[3] = 1-10 nM SkQ1, one month of cultivation

NC1(C(=O)O)CC1 [1-aminocyclopropane-1-carboxylic acid]
decrease of a number of produced regenerants (maize callus cultures): 68% | frequency of embryogenic callus formation (maize callus cultures): significant reduction

CC1=C(C)C(=O)C(CCCCCCCCCC[P+](c2ccccc2)(c2ccccc2)c2ccccc2)=CC1=O.[Br-] [SkQ1]
onset of formation of shoots from calli (sugar cane calli [1]; 10 nM SkQ1, control calli showed no shoot formation): 19 day of incubation | rooting of shoots and production of plants (sugar cane calli [1]; 10 nM SkQ1, rootage medium, then water medium and ground): take roots properly and give normal viable plants | development of formed shoots on agarized regeneration medium (sugar cane calli [1]; 10 nM SkQ1 in regeneration medium): continued to develop normally | development of shoots on regeneration medium (sugar cane calli [1]; 100 nM SkQ1 in regeneration medium): termination of further development of shoots | development of shoots on regeneration medium (sugar cane calli [1]; 1000 nM SkQ1 in regeneration medium): destruction of shoots | shoot formation from undifferentiated tissue of sugar cane (sugar cane calli [1]; FIG. 1): stimulates shoot formation | viability of shoots (sugar cane calli [1]; formed and further cultivated at 100 nM or 1000 nM SkQ1): nonviable and died | onset of shoot formation from calli (sugar cane calli [1]; higher SkQ1 concentrations (above 10 nM)): > 31 days | amount of calli with shoot formation (sugar cane calli [1]; higher SkQ1 concentrations, compared with 10 nM): in lesser amount of calli | root formation from callus tissues (tobacco leaf explants; darkness, 5 weeks, controls showed no root formation): secondary differentiation of callus tissues with root formation; also recorded: stimulates root formation | state of differentiated explant tissues on further incubation (tobacco leaf explants; newly formed root tissues did well): necrotized and died | callus accretion (green weight) (maize callus; 0-50 nM SkQ1): did not affect essentially callus accretion | amount of rhizogenic calli (maize callus; 1-10 nM SkQ1): No reliable increase | average number of roots per callus (maize callus; 1-10 nM SkQ1): increased significantly | average number of shoots per callus (maize callus; [3]): increase of an average number of shoots per callus | inoculum fraction that forms shoots (maize callus; [3]): increase of inoculum fraction that forms shoots | morphogenesis (maize callus; SkQ1 at 20 nM and higher, shoot formation affected more than rhizogenesis): inhibited morphogenesis | growth oppression (maize callus; high SkQ1 concentrations): No reliable growth oppression | rhizogenesis on repeated callus cultivation (maize callus; repeated cultivation, same medium composition): even more pronounced amplification of rhizogenesis | callus growth (weight change) (Lucerne calli; 0-10 nM SkQ1, 1 month): does not affect significantly callus growth | stimulation of regeneration (formation of calli with green areas) (Lucerne calli; 5 nM SkQ1, 1 month): 2.5-3 fold | stimulation of regeneration (Lucerne calli; SkQ1 concentrations higher than 5 nM): positive effect eliminates | formation of shoots and roots (leaf potato explants): significantly enhances formation of both shoots and roots | formation of shoots and roots (stem tomato explants): significantly enhances formation of both shoots and roots | germination of rice seeds under water (rice seeds; 1 nM SkQ1 in water): enhance significantly germination; also recorded: dramatically enhances germination | germination of rice seeds under water (rice seeds; SkQ1 at concentrations higher than 1 nM (3, 10, 30 nM)): does not reveal such a stimulating effect | capability for morphogenesis after anaerobic stress (sugar cane calli [2]): retain capability for morphogenesis | survival of calli following anaerobic stress (sugar cane calli [2]): markedly higher capability for survival; also recorded: enhances resistance

CC1=CC(=O)CC(C)(C)[C@@]1(O)/C=C/C(C)=C\C(=O)O [abscisic acid]
embryogenic callus formation (isolated embryos): stimulated embryogenic callus formation

C1=CC2C=CC1C2 [norbornadiene]
frequency of embryogenic callus formation (maize callus cultures): stimulated embryogenic callus formation

O=C(O)[C@@H]1CCCN1 [proline]
number of regenerants per explant (maize embryogenic callus; 20 mM proline, 2.8 without): 7.6 | increase of frequency of embryogenic callus formation and plant regeneration (maize embryogenic callus; 400 mg/L proline in medium): 2-3 fold

O=[N+]([O-])[O-].[Ag+] [silver nitrate]
frequency of embryogenic callus formation (maize callus cultures): stimulated embryogenic callus formation

xyloglucan pentasaccharide
enhancement of morphogenesis (wheat tussue culture): 1.5-2 fold
